# From article PMC9090415, “Discovery of small molecule inhibitors of Plasmodium falciparum apicoplast DNA polymerase” (Journal of Enzyme Inhibition and Medicinal Chemistry, 2022)
# Target: P. falciparum apicoplast DNA polymerase (Pf-apPOL) (Plasmodium falciparum, UniProt Q8ILY1)
# Assay: Fluorescence-based high-throughput DNA polymerase assay (molecular beacon), primary screen and dose-response;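 as to % inhibition ApPOL 90': test concentration in µM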;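 as to % inhibition apPOL 180': test concentration in µM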
# Format: biochemical
# Method in brief: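 Single-point screening used 10 µM compound with 20 nM polymerase, 20 nM hairpin substrate and 6 µM dNTPs for 90 min at 25 °C. Confirmatory titrations (2.5–80 µM) followed fluorescence at three times, and IC50 was derived from a fit including a cooperativity term n.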
# [1] = primary screen value of the 186 hits; unit not given; 90 min, 10 µM
# Chain of P. falciparum apicoplast DNA polymerase (Pf-apPOL) (Q8ILY1 entry or part of it): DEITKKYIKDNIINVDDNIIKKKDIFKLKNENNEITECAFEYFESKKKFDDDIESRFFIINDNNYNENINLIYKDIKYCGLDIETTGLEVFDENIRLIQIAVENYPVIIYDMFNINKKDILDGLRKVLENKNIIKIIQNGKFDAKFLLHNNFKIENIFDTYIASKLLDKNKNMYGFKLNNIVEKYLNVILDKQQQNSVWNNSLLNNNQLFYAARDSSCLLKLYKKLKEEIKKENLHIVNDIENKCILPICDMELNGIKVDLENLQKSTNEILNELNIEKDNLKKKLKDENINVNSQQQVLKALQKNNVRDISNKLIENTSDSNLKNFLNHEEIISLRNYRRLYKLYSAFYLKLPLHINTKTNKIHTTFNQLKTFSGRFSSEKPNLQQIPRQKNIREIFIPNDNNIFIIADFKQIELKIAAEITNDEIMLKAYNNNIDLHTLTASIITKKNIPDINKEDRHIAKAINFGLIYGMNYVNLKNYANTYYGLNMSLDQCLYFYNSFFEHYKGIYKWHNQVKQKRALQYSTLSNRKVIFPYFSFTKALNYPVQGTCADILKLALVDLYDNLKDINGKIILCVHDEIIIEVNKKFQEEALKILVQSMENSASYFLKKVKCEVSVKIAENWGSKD
compound,measurement,setting,value
"CCN1C(=O)C(=Cc2cccc(OC)c2O)SC1=S [Molecule 78, CCN1C(=S)SC(=Cc2cccc(c2O)OC)C1=O]",% inhibition Apo pol 10',DRC-1; 10'; concentration 2.5,-5.558%
same,% inhibition Apo pol 10',DRC-1; 10'; concentration 5,-7.622%
same,% inhibition Apo pol 10',DRC-1; 10'; concentration 10,-2.049%
same,% inhibition Apo pol 10',DRC-1; 10'; concentration 20,2.662%
same,% inhibition Apo pol 10',DRC-1; 10'; concentration 40,14.6723%
same,% inhibition Apo pol 10',DRC-1; 10'; concentration 80,44.8696%
same,% inhibition Apol 90',DRC-1; 90'; concentration 2.5,-2.637%
same,% inhibition Apol 90',DRC-1; 90'; concentration 5,-1.279%
same,% inhibition Apol 90',DRC-1; 90'; concentration 10,7.892%
same,% inhibition Apol 90',DRC-1; 90'; concentration 20,13.9946%
same,% inhibition Apol 90',DRC-1; 90'; concentration 40,28.6027%
same,% inhibition Apol 90',DRC-1; 90'; concentration 80,61.7186%
same,% inhibition apPOL 180',DRC-1; 180'; concentration 2.5,5.183%
same,% inhibition apPOL 180',DRC-1; 180'; concentration 5,11.9919%
same,% inhibition apPOL 180',DRC-1; 180'; concentration 10,27.7441%
same,% inhibition apPOL 180',DRC-1; 180'; concentration 20,33.831%
same,% inhibition apPOL 180',DRC-1; 180'; concentration 40,51.4318%
same,% inhibition apPOL 180',DRC-1; 180'; concentration 80,79.6969%
same,% inhibition Apo pol 5',"DRC-2, 5', concentration 2.5 (unit not given)",8%
same,% inhibition ApPOL 90',"DRC-2, 90', concentration 20 (unit not given)",8%
same,% inhibition Apo pol 5',DRC-2; 5'; concentration 2.5,8%
same,% inhibition Apo pol 5',DRC-2; 5'; concentration 5,3.24%
same,% inhibition Apo pol 5',DRC-2; 5'; concentration 10,14%
same,% inhibition Apo pol 5',DRC-2; 5'; concentration 20,21%
same,% inhibition Apo pol 5',DRC-2; 5'; concentration 40,38%
same,% inhibition Apo pol 5',DRC-2; 5'; concentration 80,40%
same,% inhibition Apol 40',DRC-2; 40'; concentration 2.5,2.6%
same,% inhibition Apol 40',DRC-2; 40'; concentration 5,-11%
same,% inhibition Apol 40',DRC-2; 40'; concentration 10,9%
same,% inhibition Apol 40',DRC-2; 40'; concentration 20,12%
same,% inhibition Apol 40',DRC-2; 40'; concentration 40,39%
same,% inhibition Apol 40',DRC-2; 40'; concentration 80,41%
same,% inhibition ApPOL 90',DRC-2; 90'; concentration 2.5,-1.1%
same,% inhibition ApPOL 90',DRC-2; 90'; concentration 5,-22%
same,% inhibition ApPOL 90',DRC-2; 90'; concentration 10,5.68%
same,% inhibition ApPOL 90',DRC-2; 90'; concentration 20,8%
same,% inhibition ApPOL 90',DRC-2; 90'; concentration 40,35%
same,% inhibition ApPOL 90',DRC-2; 90'; concentration 80,36%
same,% inhibition apPOL 180',DRC-2; 180'; concentration 2.5,-5.52%
same,% inhibition apPOL 180',DRC-2; 180'; concentration 5,-102%
same,% inhibition apPOL 180',DRC-2; 180'; concentration 10,-2.72%
same,% inhibition apPOL 180',DRC-2; 180'; concentration 20,-1.34%
same,% inhibition apPOL 180',DRC-2; 180'; concentration 40,23%
same,% inhibition apPOL 180',DRC-2; 180'; concentration 80,25%
same,DNA Pol,[1],43
same,DNA Pol,"primary screen value, head ""DNA Pol"", unit not given; 90 min, 10 µM",43
Cc1cccc(C2=N/C(=C\c3ccc([N+](=O)[O-])o3)C(=O)O2)c1 [KU0058960],DNA Pol,"'DNA Pol' of the 186 hits list (screen value); 90 min, 10 µM",79
same,% inhibition Apo pol 10',DRC-1; 10'; conc 2.5,31.9938%
same,% inhibition Apo pol 10',DRC-1; 10'; conc 5,37.9558%
same,% inhibition Apo pol 10',DRC-1; 10'; conc 10,61.5267%
same,% inhibition Apo pol 10',DRC-1; 10'; conc 20,80.2962%
same,% inhibition Apo pol 10',DRC-1; 10'; conc 40,86.7912%
same,% inhibition Apo pol 10',DRC-1; 10'; conc 80,87.9713%
same,% inhibition Apol 90',DRC-1; 90'; conc 2.5,16.0415%
same,% inhibition Apol 90',DRC-1; 90'; conc 5,19.2427%
same,% inhibition Apol 90',DRC-1; 90'; conc 10,39.4275%
same,% inhibition Apol 90',DRC-1; 90'; conc 20,66.6869%
same,% inhibition Apol 90',DRC-1; 90'; conc 40,86.2407%
same,% inhibition Apol 90',DRC-1; 90'; conc 80,92.5412%
same,% inhibition apPOL 180',DRC-1; 180'; conc 2.5,6.3408%
same,% inhibition apPOL 180',DRC-1; 180'; conc 5,6.493%
same,% inhibition apPOL 180',DRC-1; 180'; conc 10,24.2065%
same,% inhibition apPOL 180',DRC-1; 180'; conc 20,52.0492%
same,% inhibition apPOL 180',DRC-1; 180'; conc 40,83.7016%
same,% inhibition apPOL 180',DRC-1; 180'; conc 80,94.2271%
same,% inhibition Apo pol 5',DRC-2; 5'; conc 2.5,15%
same,% inhibition Apo pol 5',DRC-2; 5'; conc 5,25%
same,% inhibition Apo pol 5',DRC-2; 5'; conc 10,37%
same,% inhibition Apo pol 5',DRC-2; 5'; conc 20,45%
same,% inhibition Apo pol 5',DRC-2; 5'; conc 40,51%
same,% inhibition Apo pol 5',DRC-2; 5'; conc 80,48%
same,% inhibition Apo pol 5',DRC-2; 5'; concentration 10,37%
same,% inhibition Apol 40',DRC-2; 40'; conc 2.5,12%
same,% inhibition Apol 40',DRC-2; 40'; conc 5,23%
same,% inhibition Apol 40',DRC-2; 40'; conc 10,37%
same,% inhibition Apol 40',DRC-2; 40'; conc 20,50%
same,% inhibition Apol 40',DRC-2; 40'; conc 40,64%
same,% inhibition Apol 40',DRC-2; 40'; conc 80,69%
same,% inhibition Apol 40',DRC-2; 40'; concentration 10,37%
same,% inhibition ApPOL 90',DRC-2; 90'; conc 2.5,9%
same,% inhibition ApPOL 90',DRC-2; 90'; conc 5,19%
same,% inhibition ApPOL 90',DRC-2; 90'; conc 10,33%
same,% inhibition ApPOL 90',DRC-2; 90'; conc 20,47%
same,% inhibition ApPOL 90',DRC-2; 90'; conc 40,66%
same,% inhibition ApPOL 90',DRC-2; 90'; conc 80,74%
same,% inhibition apPOL 180',DRC-2; 180'; conc 2.5,1.68%
same,% inhibition apPOL 180',DRC-2; 180'; conc 5,7%
same,% inhibition apPOL 180',DRC-2; 180'; conc 10,20%
same,% inhibition apPOL 180',DRC-2; 180'; conc 20,36%
same,% inhibition apPOL 180',DRC-2; 180'; conc 40,63%
same,% inhibition apPOL 180',DRC-2; 180'; conc 80,78%
same,DNA Pol,"primary screen value, ""DNA Pol""; 90 min, 10 µM",79
"O=C(O)c1nc(-c2ccccc2)nc2c1OCO2 [Molecule 45, OC(=O)c1nc(nc2c1OCO2)c1ccccc1]",% inhibition Apo pol 10',DRC-1; concentration 2.5; 10',6.785%
same,% inhibition Apol 90',DRC-1; concentration 2.5; 90',-0.7182%
same,% inhibition apPOL 180',DRC-1; concentration 2.5; 180',-6.279%
same,% inhibition Apo pol 10',DRC-1; concentration 5; 10',18.6858%
same,% inhibition Apol 90',DRC-1; concentration 5; 90',2.776%
same,% inhibition apPOL 180',DRC-1; concentration 5; 180',-4.7971%
same,% inhibition Apo pol 10',DRC-1; concentration 10; 10',46.4099%
same,% inhibition Apol 90',DRC-1; concentration 10; 90',22.6615%
same,% inhibition apPOL 180',DRC-1; concentration 10; 180',10.4504%
same,% inhibition Apo pol 10',DRC-1; concentration 20; 10',71.5187%
same,% inhibition Apol 90',DRC-1; concentration 20; 90',46.4112%
same,% inhibition apPOL 180',DRC-1; concentration 20; 180',26.9983%
same,% inhibition Apo pol 10',DRC-1; concentration 40; 10',89.2051%
same,% inhibition Apol 90',DRC-1; concentration 40; 90',75.6472%
same,% inhibition apPOL 180',DRC-1; concentration 40; 180',64.3043%
same,% inhibition Apo pol 10',DRC-1; concentration 80 (unit not given); 10',95.8219%
same,% inhibition Apol 90',DRC-1; concentration 80; 90',92.7909%
same,% inhibition apPOL 180',DRC-1; concentration 80; 180',90.3482%
same,% inhibition Apol 40',DRC-2; 40'; concentration 2.5,7%
same,% inhibition Apol 40',DRC-2; 40'; concentration 10,34%
same,% inhibition Apol 40',DRC-2; 40'; concentration 40,69%
same,% inhibition ApPOL 90',DRC-2; 90'; concentration 5,7%
same,% inhibition ApPOL 90',DRC-2; 90'; concentration 40,69%
same,% inhibition apPOL 180',DRC-2; 180'; concentration 20,34%
same,% inhibition Apo pol 5',DRC-2; concentration 2.5; 5',13%
same,% inhibition Apol 40',DRC-2; concentration 2.5; 40',7%
same,% inhibition ApPOL 90',DRC-2; concentration 2.5; 90',4%
same,% inhibition apPOL 180',DRC-2; concentration 2.5; 180',-1.61%
same,% inhibition Apo pol 5',DRC-2; concentration 5; 5',24%
same,% inhibition Apol 40',DRC-2; concentration 5; 40',14%
same,% inhibition ApPOL 90',DRC-2; concentration 5; 90',7%
same,% inhibition apPOL 180',DRC-2; concentration 5; 180',-1.28%
same,% inhibition Apo pol 5',DRC-2; concentration 10; 5',42%
same,% inhibition Apol 40',DRC-2; concentration 10; 40',34%
same,% inhibition ApPOL 90',DRC-2; concentration 10; 90',27%
same,% inhibition apPOL 180',DRC-2; concentration 10; 180',17%
same,% inhibition Apo pol 5',DRC-2; concentration 20; 5',50%
same,% inhibition Apol 40',DRC-2; concentration 20; 40',51%
same,% inhibition ApPOL 90',DRC-2; concentration 20; 90',45%
same,% inhibition apPOL 180',DRC-2; concentration 20; 180',34%
same,% inhibition Apo pol 5',DRC-2; concentration 40; 5',58%
same,% inhibition Apol 40',DRC-2; concentration 40; 40',69%
same,% inhibition ApPOL 90',DRC-2; concentration 40; 90',69%
same,% inhibition apPOL 180',DRC-2; concentration 40; 180',68%
same,% inhibition Apo pol 5',DRC-2; concentration 80; 5',60%
same,% inhibition Apol 40',DRC-2; concentration 80; 40',77%
same,% inhibition ApPOL 90',DRC-2; concentration 80; 90',80%
same,% inhibition apPOL 180',DRC-2; concentration 80; 180',82%
same,DNA Pol,[1],34
same,DNA Pol,"primary screen value; head prints only 'DNA Pol'; 90 min, 10 µM",34
CCSc1nnc(NC(=O)Cc2csc(NC(=O)c3cnccn3)n2)s1 [Molecule 79],IC50,"supplemental file 2, sheet IC50 nontoxic compounds; Pf-apPOL",46.7 µM
